Common to all, as to format: cell-based, human
In assay [1] the test system is total (truncated + full length) C7 in RDEB_L1 cells. As to the kind of experiment: AlphaLISA quantification of total C7 in RDEB_L1 cells. The note with it: for EC50: Homo sapiens. The protocol: (§1) The AlphaLISA assay was developed in-house by using the biotin-conjugated rabbit polyclonal antibody anti-C7 (LSBio LS-298147) and conjugating the acceptor beads (PerkinElmer 6772001) to a monoclonal anti-Collagen type VII antibody produced in mouse, clone LH7.2 (Thermo MA5-13,432). Formulation of the mAb clone LH7.2 was exchanged to PBS and concentrated 5 × by using Amicon® Ultra-0.5 centrifugal filters up to 1 mg/ml. The conjugation procedure was carried out according to the protocol provided by PerkinElmer.
(§2) For compound treatment in RDEB patient-derived transformed keratinocytes, 5,000 cells were plated in 20 µL of supplemented KGM media containing 20 ng/mL TGFβ2 (SIGMA GF113) without GA-1000 in 384-well cell culture plates (Greiner 781098). The day after, 5 µL of test compounds prepared 5 × in supplemented KGM without GA-1000 were added over cells and incubated for 48 h at 37 °C and 5% CO2. For compound treatment in HEK293^R578X, 10,000 cells were plated in 20 μL of DMEM (High Glucose, 2 mM L-Glutamine, sodium pyruvate, and FBS 10%) in 384-well cell culture plates (Greiner 781,098,). The day after, 5 μL of test compounds prepared 5 × in DMEM complete medium were added over cells and incubated for 48 h at 37 °C and 5% CO2.
(§3) After the treatment process, 2.5 µL of RIPA buffer 10 x (Abcam ab156034) were added over the […] of cells for 20 min at room temperature to obtain a complete cell lysis. Then, 2 μL of sample (i.e., cell lysate with supernatant) were transferred to the AlphaLISA plate (PerkinElmer 6,059,340) containing […] of antibodies mixture ([…] of acceptor Beads-Ab and […] of biotin-rAb) prepared in AlphaLISA buffer 1 x (PerkinElmer AL00F). The reaction was incubated for 90 min at room temperature. Finally, 10 μL of […] of donor beads (PerkinElmer 6760002,) were added to the reaction under subdued light, mixed gently, and incubated for 3 h at room temperature. AlphaLISA signal was detected with an Envision microplate reader (Perkin Elmer) using the following setting: Filter: AlphaScreen, Excitation time: 180 ms, Integration time: 300 ms.
(§4) Statistical analyses were performed using GraphPad Prism v. 7.04 (La Jolla, California). Results are shown as mean ± SD of experimental replicates. Dose–response curves to assess compound treatment effect were plotted in a four-parameter logistic model. Relative EC50, representing the total drug concentration producing a 50% effect, was calculated in the four-parameter logistic equation. Comparisons of collagen protein and mRNA expression in different experimental conditions were made using ANOVA, followed by a post hoc test. statistical significance was considered with p values < 0.05.
A general note: Bead proximity is the source of the signal in Alpha formats.

For assay [2], the system named is total (truncated + full length) C7 in RDEB_L5 cells. As to the kind of experiment: AlphaLISA quantification of total C7 in RDEB_L5 cells. Particulars: for EC50: Homo sapiens, total C7 AlphaLISA, 48 h, 20 ng/mL TGFß2, relative EC50, mean ± SD, read-out: Increase in C7 levels EC50; for Increase in C7 levels Emax, % vs baseline: 20 ng/mL TGFß2. The protocol: as §1, §2, §3, §4

Assay [3] relates to COL7A1 mRNA in RDEB_L1 and RDEB_L5 cells. As to the kind of experiment: Real-time qPCR of COL7A1 mRNA. The note with it: 24 h, 20 ng/mL TGFβ2. The protocol:
For real-time qPCR, 15,000 RDEB keratinocytes or normal human epidermal keratinocytes were plated in a 96-well cell culture plate in 80 µL of supplemented KGM medium without GA-1000 and containing 20 ng/mL of TGFβ2 for RDEB keratinocytes, and cells were incubated overnight at 37 °C and 5%CO2. The day after, cells were treated with 20 µL of test compounds prepared 5 × in supplemented KGM without GA-100, for 24 h at 37 °C and 5% CO2. For the mRNA extraction, the medium was removed, cells were washed with PBS, and conserved at -80 °C until the total RNA extraction.
RNA extraction was conducted using the RNeasy 96 Kit (4) (Qiagen 74181) following the manufacturer’s instructions. Total RNA was recovered in 50 µL of RNase-free water and the yield of extracted RNA was quantified using a NanoDrop 2000 Spectrophotometer (ThermoFisher). Purified RNA was stored at -80 °C until RT-qPCR.
Real time-qPCR was performed by using the iTaq Universal Probes One-Step Kit, (cat. 1725140, Bio-Rad) and according to the manufacturer’s instructions. […] RT-qPCR was performed to quantify the COL7A1 mRNA (exon 64) expression.
For COL7A1 quantitative gene expression, human GAPDH was used as the endogenous control. Results were analyzed with the QuantStudio Real-Time PCR Software.

For assay [4], the system named is MDH1 native stop codon readthrough in RDEB_L1 and RDEB_L5 cells. As to the kind of experiment: Western blot of MDH1 native stop codon (NSC) readthrough selectivity. Particulars: 48 h. The text has this: In the absence of a verified target or mechanism of action, a key aspect of phenotypic screening is to ensure that the phenotypic activity is sufficiently selective and has minimal or no interference in physiologically close cellular processes. In this context, the selectivity of readthrough compounds vs native stop codons (NSC) and normal codon–anticodon recognition is an important endpoint to verify the selectivity of hit compounds. For that purpose, we analyzed the translation products of MDH-1, a gene that has an alternative native stop codon that has been used as a surrogate of non-specific readthrough activity[42],[43]. […] For western blot, RDEB or normal human keratinocytes were lysed in protein extraction buffer (50 mM Tris–HCl [pH 7.5], 100 mM NaCl, 1% Nonidet P-40, and 4 mM EDTA) containing proteinase inhibitors cocktail (Complete Mini, EDTA free; Roche Diagnostics, Mannheim, Germany). Lysates were incubated for 30 min on ice and centrifuged at 15,000 g for 30 min at 4 °C. Supernatants were then collected and concentrated by ultrafiltration using Amicon Ultra columns (10 kDa; Millipore, Ireland). Protein concentrations were measured using the Bradford assay (Bio-Rad, Hercules, CA). […] A. Nystrom, University of Freiburg). Invitrogen anti-MDH1 polyclonal antibody (PA550446, 1:1000) was used to detect MDH1. […]
A general note: In western blotting, separated proteins are transferred to a membrane and probed.

[5] abbreviates: RDEB_L1 cells, total C7 AlphaLISA, 48 h, 20 ng/mL TGFß2, mean ± SD, read-out: Increase in C7 levels EC50(rel).

Where two headings read alike, the source gives them in different places.

Take `NC(=O)Cn1ccc2ccc(-c3cnc(N)c(C(=O)NC4C5CC6CC4CC(O)(C6)C5)n3)cc21` (centres unmarked) [Compound 1]: the EC50 – broadly, the concentration that produces a half-maximal response – in assay [1] (RDEB_L1 cells, no gentamicin (Fig. 4b), read-out: EC50 of compound 1, total C7 AlphaLISA) is 4.56 µM; in assay [1] (setting [5]), 3 ± 1.8 µM; in assay [2] it was 4.7 ± 0.8 µM. Moreover, the “decrease in the EC50 in the presence of increasing concentrations of gentamicin” value in assay [1] (RDEB_L1 cells) is “threefold”. The “Increase in C7 levels Emax, % vs baseline” value (“Increase … % vs baseline” below) in assay [1] (RDEB_L1 cells, at 12 µM, 20 ng/mL TGFß2) is listed as 3279 ± 1236 at 12 % vs baseline; in assay [2] (at 12.5 µM), 1401 ± 384 at 12.5 % vs baseline. Further, the “effect of the combination with gentamicin on total C7 levels” value in assay [1] (RDEB_L1 cells, both at concentrations in the range of their EC50, 48 h, 20 ng/mL TGFβ) was “synergistic effect”. The “levels of COL7A1 mRNA (qPCR)” value in assay [3] is “TGFβ2 was required for full upregulation”.

With `C#Cc1cc(-c2ccncc2)c(-c2cccc(F)c2)nc1N` [Compound 7], the EC50 in assay [1] (setting [5]) is 17 ± 6.6 µM; in assay [1] (Table 5 SAR, C7 AlphaLISA, 20 ng/mL TGFß2 (cell line not given; compound 7 values equal RDEB_L1 of Table 1), read-out: Increase in C7 levels EC50 (rel)), 17 ± 6.6 µM; in assay [2], 23 ± 11 µM. Besides, the “Increase … % vs baseline” value in assay [1] (RDEB_L1 cells, at 50 µM, 20 ng/mL TGFß2) was 412 ± 80 at 50 % vs baseline; in assay [1] (Table 5 SAR, at 50 μM, 20 ng/mL TGFß2), 412 ± 80 at 50 % vs baseline; in assay [2] (at 50 µM), 293 ± 58 at 50 % vs baseline. Also, the “levels of COL7A1 mRNA (qPCR)” value in assay [3] was “did not result in an increase in C7 mRNA levels”. Also, in assay [4] (two and threefold above its EC50 in RDEB_L5 and RDEB_L1 cells respectively), the “non-specific readthrough at MDH-1 native stop codon, western blot” value is “did not induce non-specific readthrough above background levels”.

With `CNC(C)C1CCC(N)C(OC2C(N)CC(N)C(OC3OCC(C)(O)C(NC)C3O)C2O)O1` (centres unmarked) [Gentamicin, reference compound], the EC50 in assay [1] (setting [5]) was 1700 ± 480 µM; in assay [1] (in RDEB_L1 and RDEB_L5 cells, read-out: EC50 (range over two cell lines)), 420 to 1700 µM; in assay [2] it was 420 ± 390 µM. Also, the “concentrations at which activity was detectable in the AlphaLISA assay” value in assay [1] (RDEB_L1 and L5 cells) is listed as > 100 µM. In addition, the “Increase … % vs baseline” value worked out at 199 ± 112 at 4100 % vs baseline in assay [1] (RDEB_L1 cells, 20 ng/mL TGFß2) and 41 ± 3.3 at 1600 % vs baseline in assay [2] (at 1600 µM). Further, the “non-specific readthrough at MDH-1 native stop codon, western blot” value in assay [4] (twofold above its EC50 in RDEB_L1) was “inducing detectable non-specific readthrough”.

The values above are taken from PMC11329504, “Identification of novel small molecule-based strategies of COL7A1 upregulation and readthrough activity for the treatment of recessive dystrophic epidermolysis bullosa” (Scientific Reports, 2024).
